Assay results published in patent publication US11807644B2 (PMV Pharmaceuticals, Inc., priority 2020, dated 2023).

Molecular target: T1, recombinant His-tag Y220C p53 DBD protein (Homo sapiens, UniProt P04637, Y220C)
T1 construct: recombinant His-tag Y220C p53 DBD protein (amino acids #˜94-312)
Experiment: In vitro DNA binding activity assay (TR-FRET): binding of His-tag Y220C p53 DBD to biotin-labeled consensus DNA
Type: biochemical
Details: SC150 = concentration to increase DNA binding by […], His-tag Y220C p53 DBD, biotin-labeled consensus DNA
Protocol: DNA binding activity of the compounds was measured using a TR-FRET (Time-Resolved Fluorescence Resonance Energy Transfer) assay in which recombinant His-tag Y220C p53 DBD protein binds to biotin-labeled consensus DNA. Binding of recombinant His-tag Y220C p53 DBD protein and biotin-labeled consensus DNA was registered by the FRET (fluorescence resonance energy transfer) between allophycocyanin (APC) conjugated anti-His tag antibody and Europium-(Eu) conjugated Streptavidin.
The compounds of TABLES 1-9 (2 mM stock in dimethylsulfoxide) were diluted 3-fold in series in dimethylsulfoxide. 1.2 μL of a compound solution was added to each well of 384-well polypropylene black plates (NUNC). Thirty μL per well of 181 nM recombinant His-tag Y220C p53 DBD protein (amino acids #˜94-312; SEQ ID NO: 1) and 6.1 nM of APC conjugated anti-His tag antibody (Columbia Biosciences) in ice-cold Assay Buffer 1 (50 mM Tris-HCl, pH 7.4, 75 mM KCl, 0.75 mM DTT and 0.2 mg/ml, BSA) were added. As a background control. 30 μL of Assay Buffer 1 containing 6.1 nM of APC anti-His antibody (No Y220C protein) was also added into a second set of serially diluted compound plates. The samples were spun by centrifuge at 1,200 rpm (Eppendorf 5810R Plate centrifuge) for 1 minute and incubated at room temperature (20° C.) for 15 min. The samples were then further incubated at either 27° C. or 29° C. for 60 min. […] The samples were spun by centrifuge at 1,200 rpm for 1 min and incubated at room temperature (20° C.) for 20 min. Assay signals were monitored by reading excitation at 340 nm, and emission fluorescence at 615 nm and 665 nm on an Envision® reader. Normalized TR-FRET (time-resolved fluorescence resonance energy transfer) assay signal (Rn) was calculated by the formula: Rn=[(A−Ba−C×(D−Bd))/(D−Bd)]×(D−Bd) Wherein: • A is the fluorescence intensity of the sample at 665 nm; • D is the fluorescence intensity of the sample at 615 nm; • Ba and Bd are plate backgrounds at 665 nm and 615 nm, respectively; and • Dc is the fluorescence intensity of 0.67 nM Eu-SA in the assay buffer at 615 nm.
The cross-talk factor (C) was determined by the following formula: C=(Ac−Ba)/(Dc−Bd) wherein Ac is the fluorescence intensity of 0.67 nM Europium (Eu) conjugated Streptavidin in the assay buffer at 665 nm.

Y220C SC150 (μM)	SMILES
* (* = 0 μM ≤ SC150 < 0.1 μM)	COC(=O)[C@@H]1C[C@H]1C(=O)NCc1nnc(-c2cc3c(NC4CCN(C)CC4)cccc3n2CC(F)(F)F)s1 (racemic) [Compound 75B, (+/−)-methyl (1R,2R)-2-{[(5-{4-[(1-methylpiperidin-4-yl)amino]-1-(2,2,2-trifluoroethyl)-1H-indol-2-yl}-1,3,4-thiadiazol-2-yl)methyl]carbamoyl}cyclopropane-1-carboxylate]
* (* = 0 μM ≤ SC150 < 0.1 μM)	CN1CCC(Nc2cccc3c2cc(-c2nnc(CNC(=O)[C@@H]4C[C@H]4C(=O)O)s2)n3CC(F)(F)F)CC1 (racemic) [Compound 76B, (+/−)-(1R,2R)-2-{[(5-{4-[(1-methylpiperidin-4-yl)amino]-1-(2,2,2-trifluoroethyl)-1H-indol-2-yl}-1,3,4-thiadiazol-2-yl)methyl]carbamoyl}cyclopropane-1-carboxylic acid]
** (** = 0.1 μM ≤ SC150 < 0.5 μM)	CN1CCC(Nc2cccc3c2cc(-c2nnc(CNC(=O)[C@@H]4C[C@@H]4C(=O)O)s2)n3CC(F)(F)F)CC1 (racemic) [Compound 81B, (+/−)-(1R,2S)-2-{[(5-{4-[(1-methylpiperidin-4-yl)amino]-1-(2,2,2-trifluoroethyl)-1H-indol-2-yl}-1,3,4-thiadiazol-2-yl)methyl]carbamoyl}cyclopropane-1-carboxylic acid]
**** (**** = 1 μM ≤ SC150 < 10 μM)	CN1CC[C@@H](Nc2cccc3c2cc(-c2nc(CNC(=O)C4CC4)cs2)n3CC(F)(F)F)[C@@H](F)C1 (racemic) [Compound 89B, N-{[2-(4-{[(3S,4R)-3-fluoro-1-methylpiperidin-4-yl]amino}-1-(2,2,2-trifluoroethyl)-1H-indol-2-yl)-1,3-thiazol-4-yl]methyl}cyclopropanecarboxamide]
**** (**** = 1 μM ≤ SC150 < 10 μM)	CN1CC[C@@H](Nc2cccc3c2cc(-c2nc(CNC(=O)c4ccccc4)cs2)n3CC(F)(F)F)[C@@H](F)C1 (racemic) [Compound 90B, N-{[2-(4-{[(3S,4R)-3-fluoro-1-methylpiperidin-4-yl]amino}-1-(2,2,2-trifluoroethyl)-1H-indol-2-yl)-1,3-thiazol-4-yl]methyl}benzamide]
* (* = 0 μM ≤ SC150 < 0.1 μM)	CN1CC[C@@H](Nc2cccc3c2cc(-c2ncc(CNC(=O)c4ccccc4)s2)n3CC(F)(F)F)[C@@H](F)C1 (racemic) [Compound 91B, (+/−)-N-{[2-(4-{[(3R,4S)-3-fluoro-1-methylpiperidin-4-yl]amino}-1-(2,2,2-trifluoroethyl)-1H-indol-2-yl)-1,3-thiazol-5-yl]methyl}benzamide]
*** (*** = 0.5 μM ≤ SC150 < 1 μM)	CN1CC[C@@H](Nc2cccc3c2cc(-c2nccs2)n3CC(F)(F)F)[C@@H](F)C1 (racemic) [Compound 93B, (+/−)-N-[(3R,4S)-3-fluoro-1-methylpiperidin-4-yl]-2-(1,3-thiazol-2-yl)-1-(2,2,2-trifluoroethyl)-1H-indol-4-amine]
* (* = 0 μM ≤ SC150 < 0.1 μM)	CN1CC[C@@H](Nc2cccc3c2cc(-c2ncc(CNC(=O)C4CC4)s2)n3CC(F)(F)F)[C@@H](F)C1 (racemic) [Compound 95B, (+/−)-N-{[2-(4-{[(3R,4S)-3-fluoro-1-methylpiperidin-4-yl]amino}-1-(2,2,2-trifluoroethyl)-1H-indol-2-yl)-1,3-thiazol-5-yl]methyl}cyclopropanecarboxamide]
**** (**** = 1 μM ≤ SC150 < 10 μM)	CN1CC[C@@H](Nc2cccc3c2cc(-c2ncc(CN)s2)n3CC(F)(F)F)[C@@H](F)C1 (racemic) [Compound 96B, (+/−)-2-[5-(aminomethyl)-1,3-thiazol-2-yl]-N-[(3R,4S)-3-fluoro-1-methylpiperidin-4-yl]-1-(2,2,2-trifluoroethyl)-1H-indol-4-amine]
* (* = 0 μM ≤ SC150 < 0.1 μM)	CN1CC[C@@H](Nc2cccc3c2cc(-c2ncc(CNc4ccccc4)s2)n3CC(F)(F)F)[C@@H](F)C1 (racemic) [Compound 98B, (+/−)-N-[(3R,4S)-3-fluoro-1-methylpiperidin-4-yl]-2-{5-[(phenylamino)methyl]-1,3-thiazol-2-yl}-1-(2,2,2-trifluoroethyl)-1H-indol-4-amine]
* (* = 0 μM ≤ SC150 < 0.1 μM)	COc1cc(S(C)(=O)=O)ccc1NCc1ccc(-c2cc3c(N[C@H]4CCN(C)C[C@H]4F)cccc3n2CC(F)(F)F)s1 (racemic) [Compound 101B, (+/−)-N-[(3R,4S)-3-fluoro-1-methylpiperidin-4-yl]-2-(5-{[(4-methanesulfonyl-2-methoxyphenyl)amino]methyl}thiophen-2-yl)-1-(2,2,2-trifluoroethyl)-1H-indol-4-amine]
** (** = 0.1 μM ≤ SC150 < 0.5 μM)	CN1CC[C@H](Nc2cccc3c2cc(-c2ccc(CNC(=O)c4ccccc4)s2)n3CC(F)(F)F)[C@H](F)C1 (racemic) [Compound 102B, (+/−)-N-{[5-(4-{[(3R,4S)-3-fluoro-1-methylpiperidin-4-yl]amino}-1-(2,2,2-trifluoroethyl)-1H-indol-2-yl)thiophen-2-yl]methyl}benzamide]
* (* = 0 μM ≤ SC150 < 0.1 μM)	CN1CC[C@@H](Nc2cccc3c2cc(-c2ccc(CNC(=O)C4CC4)s2)n3CC(F)(F)F)[C@@H](F)C1 (racemic) [Compound 103B, (+/−)-N-{[5-(4-{[(3R,4S)-3-fluoro-1-methylpiperidin-4-yl]amino}-1-(2,2,2-trifluoroethyl)-1H-indol-2-yl)thiophen-2-yl]methyl}cyclopropanecarboxamide]
** (** = 0.1 μM ≤ SC150 < 0.5 μM)	COc1cc(S(C)(=O)=O)ccc1NCc1nnc(-c2cc3c(N[C@H]4CCN(C)C[C@H]4F)cccc3n2CC(F)(F)F)o1 (racemic) [Compound 114B, (+/−)-N-[(3R,4S)-3-fluoro-1-methylpiperidin-4-yl]-2-(5-{[(4-methanesulfonyl-2-methoxyphenyl)amino]methyl}-1,3,4-oxadiazol-2-yl)-1-(2,2,2-trifluoroethyl)-1H-indol-4-amine]
** (** = 0.1 μM ≤ SC150 < 0.5 μM)	COc1ccccc1C(=O)NCc1nnc(-c2cc3c(N[C@H]4CCN(C)C[C@H]4F)cccc3n2CC(F)(F)F)o1 (racemic) [Compound 115B, (+/−)-N-{[5-(4-{[(3R,4S)-3-fluoro-1-methylpiperidin-4-yl]amino}-1-(2,2,2-trifluoroethyl)-1H-indol-2-yl)-1,3,4-oxadiazol-2-yl]methyl}-2-methoxybenzamide]
*** (*** = 0.5 μM ≤ SC150 < 1 μM)	CN1CC[C@H](Nc2cccc3c2cc(-c2nnc(CN)o2)n3CC(F)(F)F)[C@H](F)C1 (racemic) [Compound 116B, (+/−)-2-[5-(aminomethyl)-1,3,4-oxadiazol-2-yl]-N-[(3R,4S)-3-fluoro-1-methylpiperidin-4-yl]-1-(2,2,2-trifluoroethyl)-1H-indol-4-amine]
** (** = 0.1 μM ≤ SC150 < 0.5 μM)	COc1ccc(C(=O)NCc2nnc(-c3cc4c(N[C@H]5CCN(C)C[C@H]5F)cccc4n3CC(F)(F)F)o2)cc1 (racemic) [Compound 117B, (+/−)-N-{[5-(4-{[(3R,4S)-3-fluoro-1-methylpiperidin-4-yl]amino}-1-(2,2,2-trifluoroethyl)-1H-indol-2-yl)-1,3,4-oxadiazol-2-yl]methyl}-4-methoxybenzamide]
** (** = 0.1 μM ≤ SC150 < 0.5 μM)	CN1CC[C@H](Nc2cccc3c2cc(-c2nnc(CNC(=O)c4ccccc4)o2)n3CC(F)(F)F)[C@H](F)C1 (racemic) [Compound 118B, (+/−)-N-{[5-(4-{[(3R,4S)-3-fluoro-1-methylpiperidin-4-yl]amino}-1-(2,2,2-trifluoroethyl)-1H-indol-2-yl)-1,3,4-oxadiazol-2-yl]methyl}benzamide]
** (** = 0.1 μM ≤ SC150 < 0.5 μM)	COc1cccc(C(=O)NCc2nnc(-c3cc4c(N[C@H]5CCN(C)C[C@H]5F)cccc4n3CC(F)(F)F)o2)c1 (racemic) [Compound 119B, (+/−)-N-{[5-(4-{[(3R,4S)-3-fluoro-1-methylpiperidin-4-yl]amino}-1-(2,2,2-trifluoroethyl)-1H-indol-2-yl)-1,3,4-oxadiazol-2-yl]methyl}-3-methoxybenzamide]
